How the values were obtained:
Type in all cases: physicochemical
[1] = pKa of chelating agents (Table 1); conditions: successive pKa values; (A)/(B) printed beside the catechin values
Text: Chelation is a type of bonding of ions and molecules to metal ions. It involves the formation or presence of two or more separate coordinate bonds between a ligand and a metal atom. Without being bound by theory, the stain removal effectiveness of a composition comprising one or more chelating agents may depend at least in part on the ability of the chelating agent(s) to bind to iron, which may be present in some stains, such as fruit or beverage stains. Several factors may impact a chelating agent's ability to bind to iron. These factors may include the pKa of the chelating agent compared to the wash pH, and the affinity of the chelating agent to bind with other metals, materials, or compositions in the wash.
Various embodiments may provide or employ a composition that comprises one or more chelating agents having a pKa that is near to or less than the wash pH. […] Various embodiments may also employ a wash liquor pH of about 10 or less, about 9.5 or less, less than about 9, preferably from about 6.5 to about 8.5, most preferably from about 7.0 to about 8.5. They may also include the step of maintaining the pH of the wash liquor at about 10 or less, about 9.5 or less, less than about 9, preferably from about 6.5 to about 8.5, most preferably from about 7.0 to about 8.5.

[2] = Iron binding efficiency, logK(β110) (Table 1); conditions: one metal, one ligand, no protons
Text: (§1) The binding efficiencies may be expressed as a binding constant. A binding constant (also called formation constant or stability constant) is an equilibrium constant for the formation of a complex in solution. It is a measure of the strength of the interaction between the reagents that come together to form the complex. As an example, various stains may comprise catechins as shown in Formula (13).
(§2) In Table 1, the reaction between metals and ligands is described in terms of log K(β110). In this context, K, is the equilibrium constant for the reaction between ligands and metals. The higher K, the more metal is bound. This is illustrated in the following example.
(§3) β, represents the binding efficiency and receives some subscripts (βmlh) to indicate how many metals (m), ligands (l), and protons (h) respectively are involved.

[3] = Calcium binding efficiency, logK(β110) (Table 1); conditions: one metal, one ligand, no protons
Text: as §1, §2, §3

SMILES | pKa [1] | Fe (III) logK(β110) [2] | Ca^2+ logK(β110) [3]
CCOC(=O)c1cc(O)c(O)c(O)c1 [Ethyl Gallate] | 8.7 | 14.7 | 6.7
COC(=O)c1cc(O)c(O)c(O)c1 [Methyl Gallate] | 8.7 | 14.7 | 6.7

Reference: patent US20260275242A1, “PHOSPHONATE-FREE CHELATING AGENTS AND METHODS FOR FABRIC CARE” (THE PROCTER & GAMBLE COMPANY, priority 2023, published 2026)
